Test results reported in ChEMBL document CHEMBL4311992, “Discovery of 3-(((9H-purin-6-yl)amino)methyl)-4,6-dimethylpyridin-2(1H)-one derivatives as novel tubulin polymerization inhibitors for treatment of cancer” (Eur J Med Chem, 2019).
Activity calls are given as the source filed them. No cut-off for these calls is given here.

Columns and labels:
[1] = target: Cyclin-dependent kinase-like 3 (Homo sapiens) (UniProt Q8IVW4); assay: Inhibition of recombinant human full-length CDKL3 (1 to 303 residues) assessed as residual activity at 10 uM using RRRFRPASPLRGP as substrate measured after 120 mins in presence of [gamma33P]ATP by scintillation counting method
[2] = target: ALK tyrosine kinase receptor (Homo sapiens) (UniProt Q9UM73); assay: Inhibition of recombinant human ALK (1058 to end residues) assessed as residual activity at 10 uM using KKKSPGEYVNIEF as substrate measured after 40 mins in presence of [gamma33P]ATP by scintillation counting method
[3] = target: Calcium/calmodulin-dependent protein kinase type II subunit gamma (Homo sapiens) (UniProt Q13555); assay: Inhibition of recombinant full-length human CaMK2gamma (1 to 330 residues) assessed as residual activity at 10 uM using calmodulin as substrate measured after 40 mins in presence of [gamma33P]ATP by scintillation counting method
[4] = target: Mitogen-activated protein kinase kinase kinase kinase 5 (Homo sapiens) (UniProt Q9Y4K4); assay: Inhibition of recombinant full-length human MAP4K5 assessed as residual activity at 10 uM using myelin basic protein as substrate measured after 40 mins in presence of [gamma33P]ATP by scintillation counting method
[5] = target: Casein kinase II subunit alpha (Homo sapiens) (UniProt P68400); assay: Inhibition of recombinant full length human CK2alpha1 assessed as residual activity at 10 uM using RRRDDDSDDD as substrate measured after 40 mins in presence of [gamma33P]ATP by scintillation counting method
Casein kinase II subunit alpha (Homo sapiens), sequence (P68400 whole entry, looked up): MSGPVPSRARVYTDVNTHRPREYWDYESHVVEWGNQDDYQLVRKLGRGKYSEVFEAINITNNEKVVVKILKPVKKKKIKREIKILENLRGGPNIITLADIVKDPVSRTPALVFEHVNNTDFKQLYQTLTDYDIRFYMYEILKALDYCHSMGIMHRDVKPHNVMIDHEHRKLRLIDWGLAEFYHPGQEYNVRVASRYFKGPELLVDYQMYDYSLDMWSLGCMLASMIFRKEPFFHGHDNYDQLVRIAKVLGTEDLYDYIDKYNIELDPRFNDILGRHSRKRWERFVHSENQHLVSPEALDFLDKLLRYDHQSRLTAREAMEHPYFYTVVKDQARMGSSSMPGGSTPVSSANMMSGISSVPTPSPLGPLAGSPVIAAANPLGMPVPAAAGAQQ

[6] = target: TGF-beta receptor type-2 (Homo sapiens) (UniProt P37173); assay: Inhibition of human TGFBR2 (188 to end residues) using myelin basic protein as substrate measured after 120 mins in presence of [gamma33P]ATP by scintillation counting method; set-up: scale not given: the % may be the effect or the level left
HCT-116 [7] = assay: Cell cycle arrest in human HCT116 cells assessed as up regulation of CyclinB1 expression up to 150 nM after 24 hrs by Western blot analysis; assay type: functional, cell-based
[8] = target: G protein-coupled receptor kinase 3 (Homo sapiens) (UniProt P35626); assay: Inhibition of recombinant full-length human GRK3 assessed as residual activity at 10 uM using casein as substrate measured after 40 mins in presence of [gamma33P]ATP by scintillation counting method
[9] = target: Beta-adrenergic receptor kinase 1 (Homo sapiens) (UniProt P25098); assay: Inhibition of recombinant full-length human GRK2 assessed as residual activity at 10 uM using casein as substrate measured after 40 mins in presence of [gamma33P]ATP by scintillation counting method
[10] = target: Serine/threonine-protein kinase PLK2 (Homo sapiens) (UniProt Q9NYY3); assay: Inhibition of human Snk (65 to 409 residues) using casein as substrate measured after 40 mins in presence of [gamma33P]ATP by scintillation counting method; set-up: scale not given: the % may be the effect or the level left
Serine/threonine-protein kinase PLK2 (Homo sapiens), sequence (Q9NYY3 whole entry, looked up, the tested form may be a part): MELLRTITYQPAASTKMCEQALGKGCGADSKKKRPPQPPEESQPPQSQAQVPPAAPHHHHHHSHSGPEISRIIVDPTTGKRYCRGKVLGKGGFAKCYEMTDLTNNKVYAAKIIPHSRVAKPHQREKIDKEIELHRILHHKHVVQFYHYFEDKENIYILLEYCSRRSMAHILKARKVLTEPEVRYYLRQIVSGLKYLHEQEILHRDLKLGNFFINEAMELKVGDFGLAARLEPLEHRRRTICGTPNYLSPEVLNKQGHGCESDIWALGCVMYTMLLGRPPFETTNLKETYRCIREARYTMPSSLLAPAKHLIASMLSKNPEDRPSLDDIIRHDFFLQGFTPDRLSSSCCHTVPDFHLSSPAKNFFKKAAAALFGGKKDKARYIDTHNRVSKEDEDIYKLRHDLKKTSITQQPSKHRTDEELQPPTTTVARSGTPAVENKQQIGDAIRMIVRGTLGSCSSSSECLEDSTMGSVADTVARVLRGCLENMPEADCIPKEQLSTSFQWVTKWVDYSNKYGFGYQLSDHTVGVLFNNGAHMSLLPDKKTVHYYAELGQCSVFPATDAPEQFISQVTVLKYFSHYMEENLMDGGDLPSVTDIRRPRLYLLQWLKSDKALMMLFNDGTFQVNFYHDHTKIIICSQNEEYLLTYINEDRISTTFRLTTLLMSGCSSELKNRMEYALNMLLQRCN

[11] = target: Serine/threonine-protein kinase 35 (Homo sapiens) (UniProt Q8TDR2); assay: Inhibition of recombinant full length human CLIK1 assessed as residual activity at 10 uM using RSRSRSRSRSRSRSR as substrate measured after 40 mins in presence of [gamma33P]ATP by scintillation counting method
Serine/threonine-protein kinase 35 (Homo sapiens), sequence (Q8TDR2 whole entry): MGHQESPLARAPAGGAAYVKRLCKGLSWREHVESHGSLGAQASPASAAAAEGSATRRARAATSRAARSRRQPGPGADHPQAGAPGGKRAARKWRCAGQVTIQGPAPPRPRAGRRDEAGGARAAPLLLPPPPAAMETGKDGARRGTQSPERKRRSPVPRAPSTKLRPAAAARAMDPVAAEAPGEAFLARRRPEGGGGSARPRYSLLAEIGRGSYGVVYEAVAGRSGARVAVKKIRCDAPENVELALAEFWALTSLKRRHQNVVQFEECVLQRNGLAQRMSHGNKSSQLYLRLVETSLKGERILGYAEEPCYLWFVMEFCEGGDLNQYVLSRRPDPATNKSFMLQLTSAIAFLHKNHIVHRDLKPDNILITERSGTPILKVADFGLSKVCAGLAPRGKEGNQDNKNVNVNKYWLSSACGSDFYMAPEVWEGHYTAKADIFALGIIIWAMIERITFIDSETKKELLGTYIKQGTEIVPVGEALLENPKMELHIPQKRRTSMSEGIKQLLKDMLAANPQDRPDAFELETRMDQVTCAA

HCT-15 = assay: Antiproliferative activity against human HCT15 cells assessed as reduction in cell viability after 72 hrs by MTT assay; assay type: functional, cell-based; settings: HCT-15, 72 h
SW-620 [12] = assay: Induction of apoptosis in human SW620 cells assessed as early apoptotic cells at 25 nM measured after 48 hrs by Annexin V-FITC/propidium iodide staining-based flow cytometry (reference value: 0.773%); assay type: functional
[13] = target: Dual specificity mitogen-activated protein kinase kinase 4 (Homo sapiens) (UniProt P45985); assay: Inhibition of recombinant human MKK4 (34 to end residues) assessed as residual activity at 10 uM using unactive JNK1a1 as substrate measured after 40 mins in presence of [gamma33P]ATP by scintillation counting method
Dual specificity mitogen-activated protein kinase kinase 4 (Homo sapiens), sequence (P45985 whole entry): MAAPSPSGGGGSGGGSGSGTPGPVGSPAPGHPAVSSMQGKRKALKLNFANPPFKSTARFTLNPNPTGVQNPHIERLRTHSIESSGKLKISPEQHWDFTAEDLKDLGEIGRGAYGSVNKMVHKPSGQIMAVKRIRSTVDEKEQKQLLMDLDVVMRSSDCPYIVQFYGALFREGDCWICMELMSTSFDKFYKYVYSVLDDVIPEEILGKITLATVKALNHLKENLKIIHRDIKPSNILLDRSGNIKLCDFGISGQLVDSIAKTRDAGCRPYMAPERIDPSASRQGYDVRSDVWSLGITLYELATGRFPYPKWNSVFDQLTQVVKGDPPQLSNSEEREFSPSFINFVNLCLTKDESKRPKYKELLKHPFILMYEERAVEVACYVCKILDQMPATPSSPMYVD

HCT-116 [14] = assay: Antitumor activity against human HCT116 cells xenografted in nude BALB/c mouse assessed as tumor growth inhibition at 80 mg/kg, po administered once daily for 4 weeks measured post-last dose relative to control; assay type: functional; settings: HCT-116, po, 672 h, read-out: TGI
[15] = target: Dual specificity tyrosine-phosphorylation-regulated kinase 1A (Homo sapiens) (UniProt Q13627); assay: Inhibition of recombinant full-length human DYRK1A assessed as residual activity at 10 uM using RRRFRPASPLRGPPK as substrate measured after 40 mins in presence of [gamma33P]ATP by scintillation counting method
[16] = tested on: Receptor-type tyrosine-protein kinase FLT3 (Homo sapiens), P36888 [D835Y]; assay: Inhibition of recombinant human Flt3 D835Y mutant (564 to end residues) assessed as residual activity at 10 uM using EAIYAAPFAKKK as substrate measured after 40 mins in presence of [gamma33P]ATP by scintillation counting method
SW-620 [17] = assay: Antiproliferative activity against human SW620 cells assessed as reduction in cell viability after 72 hrs by MTT assay; assay type: functional, cell-based; settings: SW-620, 72 h
[18] = target: Serine/threonine-protein kinase 33 (Homo sapiens) (UniProt Q9BYT3); assay: Inhibition of recombinant full-length human STK33 assessed as residual activity at 10 uM using myelin basic protein as substrate measured after 40 mins in presence of [gamma33P]ATP by scintillation counting method
[19] = target: Transient receptor potential cation channel subfamily M member 7 (Homo sapiens) (UniProt Q96QT4); assay: Inhibition of recombinant human CHAK1 (1180 to end residues) assessed as residual activity at 10 uM using myelin basic protein as substrate measured after 40 mins in presence of [gamma33P]ATP by scintillation counting method
[20] = target: Serine/threonine-protein kinase MARK2 (Homo sapiens) (UniProt Q7KZI7); assay: Inhibition of recombinant full-length human PAR1Balpha assessed as residual activity at 10 uM using KKKVSRSGLYRSPSMPENLNRPR as substrate measured after 40 mins in presence of [gamma33P]ATP by scintillation counting method
[21] = target: Eukaryotic translation initiation factor 2-alpha kinase 3 (Homo sapiens) (UniProt Q9NZJ5); assay: Inhibition of recombinant human PEK (536 to end residues) assessed as residual activity at 10 uM using RSRSRSRSRSRSRSR as substrate measured after 40 mins in presence of [gamma33P]ATP by scintillation counting method
Eukaryotic translation initiation factor 2-alpha kinase 3 (Homo sapiens), sequence (Q9NZJ5 whole entry): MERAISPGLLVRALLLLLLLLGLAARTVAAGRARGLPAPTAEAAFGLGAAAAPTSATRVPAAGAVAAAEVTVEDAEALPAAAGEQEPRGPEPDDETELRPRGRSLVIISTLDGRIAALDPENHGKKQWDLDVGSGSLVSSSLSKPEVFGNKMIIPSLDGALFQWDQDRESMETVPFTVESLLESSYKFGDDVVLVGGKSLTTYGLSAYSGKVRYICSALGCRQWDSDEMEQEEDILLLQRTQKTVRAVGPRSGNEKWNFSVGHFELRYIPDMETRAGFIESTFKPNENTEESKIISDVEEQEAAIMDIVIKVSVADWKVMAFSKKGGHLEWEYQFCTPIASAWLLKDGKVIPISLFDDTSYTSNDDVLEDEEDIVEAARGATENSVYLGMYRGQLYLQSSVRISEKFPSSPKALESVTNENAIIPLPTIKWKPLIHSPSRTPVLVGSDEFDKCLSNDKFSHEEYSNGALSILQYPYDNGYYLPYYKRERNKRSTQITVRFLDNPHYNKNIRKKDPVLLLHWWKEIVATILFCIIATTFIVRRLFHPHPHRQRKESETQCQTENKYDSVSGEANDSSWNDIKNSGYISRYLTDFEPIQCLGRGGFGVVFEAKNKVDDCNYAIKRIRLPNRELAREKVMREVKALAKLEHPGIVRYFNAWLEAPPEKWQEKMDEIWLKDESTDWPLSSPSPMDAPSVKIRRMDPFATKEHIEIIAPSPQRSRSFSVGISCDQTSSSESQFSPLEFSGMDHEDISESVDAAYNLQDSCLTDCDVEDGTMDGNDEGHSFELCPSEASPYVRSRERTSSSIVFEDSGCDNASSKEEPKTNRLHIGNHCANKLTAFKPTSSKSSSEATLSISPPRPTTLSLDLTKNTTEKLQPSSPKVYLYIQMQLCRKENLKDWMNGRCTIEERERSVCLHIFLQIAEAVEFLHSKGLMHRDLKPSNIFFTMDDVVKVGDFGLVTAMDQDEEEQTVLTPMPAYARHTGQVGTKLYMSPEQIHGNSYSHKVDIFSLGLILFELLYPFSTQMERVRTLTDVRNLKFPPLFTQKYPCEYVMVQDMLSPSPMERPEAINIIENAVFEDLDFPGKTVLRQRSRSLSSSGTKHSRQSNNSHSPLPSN

[22] = target: Histone-lysine N-methyltransferase EZH2 (Homo sapiens) (UniProt Q15910); assay: Inhibition of EZH2 (unknown origin) at 10 uM relative to control
Histone-lysine N-methyltransferase EZH2 (Homo sapiens), sequence (Q15910 whole entry, looked up, the tested form may be a part): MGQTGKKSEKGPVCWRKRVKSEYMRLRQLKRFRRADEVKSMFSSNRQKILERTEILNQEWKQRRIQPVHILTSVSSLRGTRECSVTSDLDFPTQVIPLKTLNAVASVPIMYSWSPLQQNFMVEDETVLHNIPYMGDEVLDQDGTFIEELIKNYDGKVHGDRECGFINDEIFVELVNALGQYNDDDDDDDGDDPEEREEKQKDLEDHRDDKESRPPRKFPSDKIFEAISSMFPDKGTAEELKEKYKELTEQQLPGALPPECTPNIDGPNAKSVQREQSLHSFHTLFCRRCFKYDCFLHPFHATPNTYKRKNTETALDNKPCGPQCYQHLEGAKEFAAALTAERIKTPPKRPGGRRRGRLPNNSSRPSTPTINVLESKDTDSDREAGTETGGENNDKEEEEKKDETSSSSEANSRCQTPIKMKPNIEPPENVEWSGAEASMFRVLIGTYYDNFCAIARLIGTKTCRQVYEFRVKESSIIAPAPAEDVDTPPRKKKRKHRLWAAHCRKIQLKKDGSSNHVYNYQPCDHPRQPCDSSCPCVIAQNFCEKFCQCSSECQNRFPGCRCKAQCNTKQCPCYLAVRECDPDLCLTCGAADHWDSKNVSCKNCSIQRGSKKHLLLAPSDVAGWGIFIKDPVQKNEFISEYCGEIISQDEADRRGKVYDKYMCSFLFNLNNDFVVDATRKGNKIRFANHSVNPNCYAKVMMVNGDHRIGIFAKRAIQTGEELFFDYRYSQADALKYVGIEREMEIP

[23] = target: Fibroblast growth factor receptor 2 (Homo sapiens) (UniProt P21802); assay: Inhibition of recombinant human FGFR2 (456 to 770 residues) assessed as residual activity at 10 uM using poly(Glu, Tyr) 4:1 as substrate measured after 40 mins in presence of [gamma33P]ATP by scintillation counting method
Fibroblast growth factor receptor 2 (Homo sapiens), sequence (P21802 22-821 limits assumed): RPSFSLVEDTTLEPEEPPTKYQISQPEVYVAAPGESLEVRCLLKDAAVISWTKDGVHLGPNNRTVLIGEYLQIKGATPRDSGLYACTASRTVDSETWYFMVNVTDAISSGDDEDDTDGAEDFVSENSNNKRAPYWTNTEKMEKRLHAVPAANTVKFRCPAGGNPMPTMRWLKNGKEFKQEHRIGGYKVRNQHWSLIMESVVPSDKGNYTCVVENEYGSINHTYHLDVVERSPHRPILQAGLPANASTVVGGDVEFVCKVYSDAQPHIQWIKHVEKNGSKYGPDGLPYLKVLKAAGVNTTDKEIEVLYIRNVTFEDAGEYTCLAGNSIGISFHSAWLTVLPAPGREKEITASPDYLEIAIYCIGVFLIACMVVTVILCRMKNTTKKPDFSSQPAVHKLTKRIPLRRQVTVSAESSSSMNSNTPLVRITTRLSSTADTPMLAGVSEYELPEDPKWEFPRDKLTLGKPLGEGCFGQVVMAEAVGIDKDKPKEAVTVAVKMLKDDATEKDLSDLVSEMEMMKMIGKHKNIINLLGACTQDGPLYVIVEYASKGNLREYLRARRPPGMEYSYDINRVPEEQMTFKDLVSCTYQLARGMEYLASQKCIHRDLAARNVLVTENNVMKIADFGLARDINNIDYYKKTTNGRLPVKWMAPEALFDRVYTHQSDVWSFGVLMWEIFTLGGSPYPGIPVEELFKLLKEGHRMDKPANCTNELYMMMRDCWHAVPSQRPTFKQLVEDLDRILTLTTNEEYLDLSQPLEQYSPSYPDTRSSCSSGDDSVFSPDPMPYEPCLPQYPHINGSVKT

[24] = target: Mitogen-activated protein kinase 12 (Homo sapiens) (UniProt P53778); assay: Inhibition of recombinant full-length human SAPK3 assessed as residual activity at 10 uM using myelin basic protein as substrate measured after 40 mins in presence of [gamma33P]ATP by scintillation counting method
Mitogen-activated protein kinase 12 (Homo sapiens), sequence (P53778 whole entry): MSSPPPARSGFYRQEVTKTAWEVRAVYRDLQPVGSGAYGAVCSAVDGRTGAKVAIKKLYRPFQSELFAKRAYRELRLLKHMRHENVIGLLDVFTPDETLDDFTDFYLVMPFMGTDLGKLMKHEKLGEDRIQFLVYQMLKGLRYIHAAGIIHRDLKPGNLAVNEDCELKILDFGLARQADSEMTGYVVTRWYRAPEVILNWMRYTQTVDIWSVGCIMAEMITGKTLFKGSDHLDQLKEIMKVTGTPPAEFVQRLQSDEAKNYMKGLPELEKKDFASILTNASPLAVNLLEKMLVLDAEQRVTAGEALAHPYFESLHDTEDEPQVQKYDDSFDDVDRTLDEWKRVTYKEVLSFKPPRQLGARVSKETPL

With `Cc1cc(C)c(CNc2nc(Cl)nc3c2ncn3C2CCCC2)c(=O)[nH]1` the Activity [1] was 126%, the Activity [2] was 112% and the Activity [3] was 99.5%. For the same molecule, the Activity [4] was 130%, the Activity [5] was 88% and the Activity [6] was 71%. For the same molecule, the Activity (HCT-116 [7]) was “Active”, the Activity [8] was 100% and the Activity [9] was 102%. For the same molecule, the Activity [10] was 106%, the Activity [11] was 65.5% and the IC50 (HCT-15) was 0.061 µM. For the same molecule, the Activity (SW-620 [12]) was 1.22%, the Activity [13] was 133% and the inhibition in vivo at 80 mg/kg (HCT-116 [14]) was 71.6%. It also gave an Activity [15] of 100%, an Activity [16] of 85.5% and an IC50 (SW-620 [17]) of 0.06 µM. It also gave an Activity [18] of 86.5%, an Activity [19] of 108% and an Activity [20] of 95.5%. The Activity [21] was 116%, the inhibition [22] was -9% and the Activity [23] was 106%. It also gave an Activity [24] of 96.5%.
